These are literature values, as cited in publication PMC7766225, “Structure-Based Discovery and Bioactivity Evaluation of Novel Aurora-A Kinase Inhibitors as Anticancer Agents via Docking-Based Comparative Intermolecular Contacts Analysis (dbCICA)” (Molecules, 2020).

The data set addresses T1, Aurora-A kinase (Homo sapiens, UniProt O14965).
T1 construct: purchased Invitrogen (Carlsbad, CA, USA)
T1 sequence (O14965 1-403): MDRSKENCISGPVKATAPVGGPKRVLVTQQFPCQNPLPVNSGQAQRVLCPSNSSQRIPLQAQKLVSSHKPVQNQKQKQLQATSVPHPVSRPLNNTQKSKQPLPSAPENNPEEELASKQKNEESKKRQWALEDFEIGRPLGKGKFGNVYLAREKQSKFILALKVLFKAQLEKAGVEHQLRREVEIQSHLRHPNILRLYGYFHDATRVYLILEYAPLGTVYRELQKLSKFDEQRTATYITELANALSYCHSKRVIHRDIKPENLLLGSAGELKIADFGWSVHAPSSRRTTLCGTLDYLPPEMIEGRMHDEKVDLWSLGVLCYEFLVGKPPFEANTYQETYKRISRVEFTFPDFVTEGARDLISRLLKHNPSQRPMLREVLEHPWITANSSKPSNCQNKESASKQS
The conditions noted are these: Table S1, ChEMBL, cited from earlier work.

Setting [1] is: ref Pollard and Mortimore, 2009.

pKi: −log10 of the molar value. Read-outs that look alike come from different tables or passages of the source.

In the case of `COc1cc2c(Nc3cc(CC(=O)Nc4cccc(F)c4F)[nH]n3)ncnc2cc1OCCCN1CCN(CCO)CC1` [Compound 12], the pKi (ref Mortlock, et al., 2007) was 7.26.

For `COc1cc2c(Nc3cc(CC(=O)Nc4cccc(F)c4F)[nH]n3)ncnc2cc1OCCCN1CCC(O)CC1` [Compound 13], the pKi (ref Mortlock, et al., 2007) was 6.66.

As for `COc1cc2c(Nc3cc(CC(=O)Nc4cccc(F)c4F)[nH]n3)ncnc2cc1OCCCN1CCC(CCO)CC1` [Compound 14], the pKi (ref Mortlock, et al., 2007) is 6.55.

For the molecule `COc1cc2c(Nc3cc(CC(=O)Nc4cccc(F)c4)[nH]n3)ncnc2cc1OCCCNCCO` [Compound 15], the pKi (ref Mortlock, et al., 2007) is 6.16.

For `COc1cc2c(Nc3cc(CC(=O)Nc4cccc(F)c4)[nH]n3)ncnc2cc1OCCCN(C)CCO` [Compound 16], where the note is “ref Mortlock, et al., 2007”, the pKi was 7.19.

With `CCN(CCO)CCCOc1cc2ncnc(Nc3cc(CC(=O)Nc4cccc(F)c4)[nH]n3)c2cc1OC` [Compound 17], where the note is “ref Mortlock, et al., 2007”, the pKi was 6.72.

With `CCCN(CCO)CCCOc1cc2ncnc(Nc3cc(CC(=O)Nc4cccc(F)c4)[nH]n3)c2cc1OC` [Compound 18], where the note is “ref Mortlock, et al., 2007”, the negative logarithm of the Ki (pKi) was 6.66.

As for `CCN(CCO)CCCOc1cc2ncnc(Nc3cc(CC(=O)Nc4cccc(F)c4F)[nH]n3)c2cc1OC` [Compound 19], the pKi (ref Mortlock, et al., 2007) was 6.44.

Consider `COc1cc2c(Nc3cc(CC(=O)Nc4cccc(F)c4F)[nH]n3)ncnc2cc1OCCCN(CCO)CC(C)C` [Compound 21], for which, for the setting “ref Mortlock, et al., 2007”, the pKi is 7.74.

On to `CCCN(CCO)CCCOc1ccc2c(Nc3cc(CC(=O)Nc4cccc(F)c4F)[nH]n3)ncnc2c1` [Compound 23], for which, under “ref Mortlock, et al., 2007”, the pKi is 6.46.

For `CCCN(CCO)CCCOc1ccc2c(Nc3cc(CC(=O)Nc4cccc(F)c4)[nH]n3)ncnc2c1` [Compound 25], the negative logarithm of the Ki (pKi) (ref Mortlock, et al., 2007) was 6.01.

With `Cc1cc(Nc2nc(-c3ccccc3)nc3ccccc23)n[nH]1` [Compound 27], the pKi under setting [1] is 7.24.

With `CC(=O)Nc1ccc(Sc2nc(Nc3cc(C)[nH]n3)c3ccccc3n2)cc1` [Compound 28], the pKi under setting [1] was 8.40.

As for `Cc1cc(Nc2nc(-c3ccncc3)nc3ccccc23)n[nH]1` [Compound 29], under “ref Bebbington, et al., 2009”, the negative-log Ki (pKi) is 7.09.

Turning to `CC(=O)Nc1ccc(Sc2nccc(Nc3cc(C)[nH]n3)n2)cc1` [Compound 49], where the note is “ref Bebbington, et al., 2009”, the pKi is 7.07.

Take `CC(=O)Nc1ccc(Sc2nc(C)cc(Nc3cc(C)[nH]n3)n2)cc1` [Compound 50]: the pKi (ref Bebbington, et al., 2009) is 7.74.

Turning to `CC(=O)Nc1ccc(Sc2nc(Nc3cc(C)[nH]n3)cc(-c3ccccc3)n2)cc1` [Compound 51], the pKi (ref Bebbington, et al., 2009) was 8.62.

The pKi is the negative decadic logarithm of the Ki, by convention in mol/L.
